Test systems include CCRF-CEM; HCT-116; HCT-15; HL-60; HOP-62; HT-29; IGROV-1; K562; NCI-H226; NCI-H522; OVCAR-8; RPMI-8226; SF-539; SNB-19; SNB-75; UACC-257; SK-MEL-28; UO-31; HCC 2998; KM12.
What all share (assay): NCI tumour cell line growth inhibition, 48 h

Here are results for twelve molecules from ChEMBL document CHEMBL1201862, “PubChem BioAssay data set” (2004).

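The compound was tested at five concentrations on cells cultured in 96-well plates, with a 48-hour exposure period. Abbreviation: GI50, concentration required for 50% inhibition of growth.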 The source made the active and inactive calls. Rule as the data show it: active = GI50 up to about 1.1 µM and inactive = higher. Square brackets hold non-standard residues; d marks the D form. Peptide text beside a SMILES is read from it. * marks the point of attachment. Boc = CC(C)(C)OC(=O)*; Lac = C[CH](O)C(=O)O; OBn = c1ccc(CO*)cc1

Regarding `CCOC(=O)C1CCn2c(nc3c2c(=O)n(C)c(=O)n3C)S1` (stereo not given), the GI50 is > 100 µM (inactive) in the experiment on CCRF-CEM; > 100 µM (inactive) in the experiment with HCT-116; more than 100 µM in the experiment on HCT-15; > 100 µM (inactive) with HL-60; > 100 µM (inactive) with HOP-62; > 100 µM (inactive) in the experiment with HT-29. The GI50 with IGROV-1, in the experiment on K562, in the experiment on NCI-H226, in the experiment with NCI-H522, in the experiment with OVCAR-8 and in the experiment on RPMI-8226 was > 100 µM (inactive) in each case. In addition, the GI50 with SF-539, in the experiment with SNB-19, in the experiment on SNB-75 and with UACC-257 was > 100 µM (inactive) throughout.
For `Cc1cc(=O)oc2c1cc1ccc3cccc4ccc2c1c34`, the GI50 is > 100 µM (inactive) with CCRF-CEM; more than 100 µM in the experiment on HCT-15; > 100 µM (inactive) with HL-60; > 100 µM (inactive) in the experiment with HT-29; > 100 µM (inactive) in the experiment with IGROV-1; > 100 µM (inactive) in the experiment with K562. Also, the GI50 in the experiment with NCI-H226 was > 100 µM (inactive); in the experiment on NCI-H522, 64.7 µM (inactive); in the experiment on OVCAR-8 it was > 100 µM (inactive); with RPMI-8226 it was > 100 µM (inactive); with SF-539, 58.6 µM (inactive); in the experiment with SK-MEL-28, > 100 µM (inactive). Also, the values for the GI50 with SNB-19, in the experiment with SNB-75 and in the experiment with UO-31 were 64.7 µM (inactive), 41 µM (inactive) and > 100 µM (inactive), respectively.
Take `CC(OC(=O)C(Cc1ccccc1)NC(=O)C(Cc1ccccc1)NC(=O)OC(C)(C)C)C(=O)OCc1ccccc1` (stereo not drawn) (Boc-Phe-Phe-[Lac]-OBn; configuration not given here): the GI50 with CCRF-CEM is > 100 µM (inactive); in the experiment with HCC 2998 it was > 100 µM (inactive); in the experiment on HCT-116, > 100 µM (inactive); in the experiment with HCT-15 it was more than 100 µM; in the experiment on HL-60 it was > 100 µM (inactive); in the experiment on HOP-62 it was > 100 µM (inactive). Moreover, the GI50 in the experiment on IGROV-1, with K562, with KM12, in the experiment on NCI-H226, with NCI-H522 and in the experiment on OVCAR-8 was > 100 µM (inactive) each time. For the same molecule, the GI50 in the experiment on RPMI-8226 was 94 µM (inactive); in the experiment on SK-MEL-28, > 100 µM (inactive); in the experiment on SNB-19, > 100 µM (inactive); in the experiment with SNB-75, 93.1 µM (inactive); in the experiment with UO-31, > 100 µM (inactive).
As to `CC1CC2=C(S(=O)(=O)c3ccccc3)CC(S(=O)(=O)c3ccccc3)(S(=O)(=O)c3ccccc3)CC21` (stereo not given), the GI50 in the experiment with CCRF-CEM is 27.4 µM (inactive); in the experiment on HCC 2998 it was > 100 µM (inactive); in the experiment on HCT-116 it was 21.9 µM (inactive); in the experiment with HCT-15 it was more than 100 µM; in the experiment on HL-60, 16.6 µM (inactive); in the experiment with HOP-62, > 100 µM (inactive). Further, the GI50 in the experiment on HT-29 was > 100 µM (inactive); in the experiment with IGROV-1, > 100 µM (inactive); with K562, 38.7 µM (inactive); in the experiment with KM12, > 100 µM (inactive); with NCI-H226 it was > 100 µM (inactive); with OVCAR-8 it was > 100 µM (inactive). In addition, the GI50 is 88.1 µM (inactive) in the experiment with RPMI-8226; > 100 µM (inactive) in the experiment on SF-539; > 100 µM (inactive) in the experiment with SK-MEL-28; > 100 µM (inactive) with SNB-19; 25.1 µM (inactive) with SNB-75; > 100 µM (inactive) with UACC-257. In addition, the GI50 with UO-31 was > 100 µM (inactive).
Turning to `O=C(NN1C(=O)CSC1c1cccc(F)c1)c1ccncc1` (stereo not given), the GI50 is > 100 µM (inactive) with CCRF-CEM; > 100 µM (inactive) in the experiment with HCC 2998; more than 100 µM in the experiment with HCT-15; > 100 µM (inactive) in the experiment on HL-60; > 100 µM (inactive) in the experiment on HT-29; > 100 µM (inactive) in the experiment on IGROV-1. The GI50 in the experiment on K562, in the experiment with KM12, in the experiment with NCI-H522, in the experiment on OVCAR-8, with RPMI-8226 and in the experiment on SF-539 was > 100 µM (inactive) throughout. Also, the GI50 in the experiment with SK-MEL-28, in the experiment on SNB-19, in the experiment with SNB-75, in the experiment with UACC-257 and in the experiment with UO-31 was > 100 µM (inactive) each time.
On to `O=C1Nc2ccc(Cl)cc2/C1=C\c1c(Cl)nc2sccn12`, for which the GI50 in the experiment on CCRF-CEM was 10.6 µM (inactive); with HCC 2998, 2.14 µM (inactive); in the experiment with HCT-116 it was 4.23 µM (inactive); with HCT-15 it was 2.67 µM; in the experiment with HL-60, 4.07 µM (inactive); with HOP-62 it was 13.9 µM (inactive). The GI50 is 8.51 µM (inactive) with IGROV-1; 0.156 µM (active) in the experiment on K562; 2.25 µM (inactive) with KM12; 5.62 µM (inactive) with NCI-H522; 50.8 µM (inactive) in the experiment on OVCAR-8; 0.0514 µM (active) in the experiment with RPMI-8226. Besides, the GI50 in the experiment with SK-MEL-28, in the experiment on SNB-19, in the experiment with SNB-75, in the experiment with UACC-257 and with UO-31 was > 100 µM (inactive) throughout.
As for `COC1=CC(=O)C2(C=C1OC)OC[C@H]1Oc3c(ccc4c3C=CC(C)(C)O4)C(=O)[C@H]12` (stereo not given in full), the GI50 in the experiment with CCRF-CEM was 28.1 µM (inactive); with HCC 2998, 86.5 µM (inactive); in the experiment with HCT-116, 28.4 µM (inactive); in the experiment on HL-60 it was 15.6 µM (inactive); in the experiment with HOP-62, 92.7 µM (inactive); with HT-29, 49.2 µM (inactive). Further, the GI50 is 40.3 µM (inactive) in the experiment on IGROV-1; 36.8 µM (inactive) with K562; 40.3 µM (inactive) in the experiment on KM12; 16.7 µM (inactive) in the experiment with NCI-H522; 37.5 µM (inactive) in the experiment with OVCAR-8; 22.6 µM (inactive) with RPMI-8226. In addition, the GI50 with SF-539 is 34.5 µM (inactive); with SK-MEL-28 it was 41.2 µM (inactive); in the experiment with SNB-19 it was 47 µM (inactive); in the experiment with SNB-75, 32.1 µM (inactive); with UACC-257, 37.8 µM (inactive); in the experiment on UO-31 it was 60.5 µM (inactive).
Regarding `O=C1CCC(NC(=O)Cc2ccc(O)cc2)C(=O)N1` (stereo not given), the GI50 in the experiment with HCT-116 was > 2500 µM (inactive); in the experiment with HCT-15, more than 2500 µM; in the experiment with HT-29, > 2500 µM (inactive); in the experiment with IGROV-1 it was > 2500 µM (inactive); in the experiment with KM12 it was > 2500 µM (inactive); in the experiment on NCI-H226, > 2500 µM (inactive). The GI50 in the experiment with NCI-H522 was > 2500 µM (inactive); in the experiment on OVCAR-8, > 2500 µM (inactive); in the experiment on SK-MEL-28, > 2500 µM (inactive); in the experiment with SNB-19, > 2500 µM (inactive); with SNB-75, 589 µM (inactive); in the experiment with UACC-257, > 2500 µM (inactive). Also, the GI50 with UO-31 was > 2500 µM (inactive).
`CCC(=O)NC(Nc1cccc(F)c1)(C(F)(F)F)C(F)(F)F`: the GI50 in the experiment on CCRF-CEM is 60 µM (inactive); in the experiment on HCC 2998 it was > 100 µM (inactive); with HCT-116, > 100 µM (inactive); with HCT-15, more than 100 µM; with HL-60, 86.9 µM (inactive); with HT-29, > 100 µM (inactive). Moreover, the GI50 was > 100 µM (inactive) in the experiment with IGROV-1; > 100 µM (inactive) in the experiment on K562; > 100 µM (inactive) in the experiment on KM12; 29.6 µM (inactive) in the experiment with NCI-H522; > 100 µM (inactive) with OVCAR-8; > 100 µM (inactive) in the experiment with RPMI-8226. For the same molecule, the GI50 was > 100 µM (inactive) with SF-539; > 100 µM (inactive) with SK-MEL-28; > 100 µM (inactive) in the experiment with SNB-19; > 100 µM (inactive) in the experiment on SNB-75; > 100 µM (inactive) in the experiment with UACC-257; 70.1 µM (inactive) with UO-31.
For the molecule `COc1ccc(C(=O)NNC(=O)c2nsc3ccccc23)cc1`, the GI50 was 24.7 µM (inactive) with CCRF-CEM; > 100 µM (inactive) in the experiment with HCC 2998; 83.6 µM (inactive) in the experiment on HCT-116; 41.7 µM with HCT-15; 23.3 µM (inactive) in the experiment with HL-60; 44.5 µM (inactive) in the experiment with HOP-62. The GI50 in the experiment on HT-29 is 61.7 µM (inactive); in the experiment with IGROV-1, > 100 µM (inactive); with K562, 39.4 µM (inactive); in the experiment with KM12 it was > 100 µM (inactive); in the experiment with OVCAR-8, 60.1 µM (inactive); in the experiment with RPMI-8226, 52.5 µM (inactive). Besides, the GI50 with SF-539, with SK-MEL-28, with SNB-19, in the experiment with UACC-257 and with UO-31 was > 100 µM (inactive) throughout.
As to `Cc1n[nH]c(CC#N)n1`, the GI50 in the experiment with CCRF-CEM was > 100 µM (inactive); in the experiment on HCC 2998 it was > 100 µM (inactive); in the experiment on HCT-116, > 100 µM (inactive); in the experiment on HCT-15 it was more than 100 µM; in the experiment on HOP-62 it was > 100 µM (inactive); in the experiment on HT-29, > 100 µM (inactive). Moreover, the GI50 in the experiment on IGROV-1, in the experiment with K562, with KM12, in the experiment on NCI-H522, with OVCAR-8 and in the experiment on RPMI-8226 was > 100 µM (inactive) each time. Moreover, the GI50 in the experiment with SF-539, in the experiment on SNB-19, in the experiment on SNB-75, in the experiment with UACC-257 and in the experiment with UO-31 was > 100 µM (inactive) each time.
In the case of `COP(=O)(OC)C(N)Cc1c[nH]c2ccccc12` (stereo not given), the GI50 is > 100 µM (inactive) with HCC 2998; > 100 µM (inactive) with HCT-116; more than 100 µM with HCT-15; > 100 µM (inactive) in the experiment with HOP-62; > 100 µM (inactive) with HT-29; > 100 µM (inactive) in the experiment with IGROV-1. Besides, the GI50 in the experiment with K562, in the experiment with NCI-H226, in the experiment on NCI-H522, in the experiment with OVCAR-8, in the experiment on RPMI-8226 and in the experiment on SK-MEL-28 was > 100 µM (inactive) in each case. Further, the GI50 with SNB-19, in the experiment on SNB-75, with UACC-257 and in the experiment on UO-31 was > 100 µM (inactive) in each case.
